From patent publication US20160271162A1, “D-ALANINE PHOSPHORAMIDE PRONUCLEOTIDES OF 2'-METHYL 2'-FLURO GUANOSINE NUCLEOSIDE COMPOUNDS FOR THE TREATMENT OF HCV” (IDENIX PHARMACEUTICALS, LLC, priority 2013, published 2016)

Experiments:
[1] = Cytotoxicity evaluation, CellTiter-Blue cell viability; assay type: cell-based; details: human, Zluc cells (HCV replicon), CellTiter-Blue Cell Viability Assay
Procedure: For cytotoxicity evaluation, Zluc cells were treated with compound as described herein, and cell viability was monitored using the CellTiter-Blue Cell Viability Assay (Promega) by adding 20 μL of the assay solution to each well. The plates were then incubated at 37° C./5% CO2 for at least 3 hours. Fluorescence was detected in plates using excitation and emission wavelengths of 531 and 595 nm, respectively, in a Victor^3 V 1420 multilabel counter (Perkin Elmer) and CC50 values were determined using Microsoft Excel and XLfit 5.2 software.

[2] = Liver pharmacokinetics following a single oral dose in CD-1 mice; assay type: in vivo; details: 2′-Me-2′-F-G TP in liver, single oral dose 10 mg/kg in PEG 200, CD-1 male mice, 4, 12 and 24 hours post dose
Procedure: A single oral dose of test compound at 10 mg/kg for 104a and 104b in PEG 200 (dose volume 5 mL/kg) is administered to nine CD-1 male mice. Five untreated animals are used for the collection of control plasma and liver. Terminal plasma and liver samples are collected from three animals per time point at 4, 12 and 24 hours post dose. Liver specimens are collected from all animals immediately after the incision. Freezing forceps stored in liquid nitrogen are used to freeze the liver before excision.
Liver samples are analyzed for the active species 2′-methyl-2′-fluoroguanosine triphosphate (2′-Me-2′-F-G TP) by LC-MS/MS. 2′-Me-2′-F-G TP levels are assayed by homogenizing (on ice) a known weight of mouse liver with 4× volume of 0.95 M trichloroacetic acid (TCA). Internal standard solution is added to the homogenate followed by neutralization with 20% ammonium hydroxide solution and addition of 500 μL 1% formic acid. The tissue samples are extracted by weak anion exchange solid phase extraction (SPE). Post extraction, the eluates are evaporated under nitrogen, followed by reconstitution before injection onto the LC-MS/MS system. […] The analyte is detected and quantified by tandem mass spectrometry in positive ion mode on an API4000 equipped with a Turbo Ionspray® interface. […]

[3] = system: HCV genotype 1b replicon; experiment: HCV replicon assay (luciferase reporter); assay type: cell-based; details: Hepatitis C virus, Huh-7-derived Zluc cells, 72 hours incubation
Procedure: Huh-7-derived cell line (Zluc) that harbors an HCV genotype 1b replicon and a luciferase reporter gene was grown in Dulbecco's Modified Eagle Medium (DMEM) supplemented with 10% fetal bovine serum, 2 mM GlutaMAX, 1% MEM nonessential amino acids, 100 IU/mL penicillin, 100 μg/mL streptomycin, and 0.5 mg/mL Geneticin® (G418). For dose response testing the cells were seeded in 96-well plates at 7.5×10^3 cells per well in a volume of 50 μl, and incubated at 37° C./5% CO2. Drug solutions were made up freshly in Huh-7 media as 2× stocks. Ten additional 5-fold dilutions were prepared from these stocks in DMEM without G418. At least three hours after Zluc cells were seeded, drug treatment was initiated by adding 50 μL of drug dilutions to the plates in duplicate. Final concentrations of drug ranged from 100 μM to 0.0000512 μM. […] After 72 hours of incubation, the inhibition of HCV replication was measured by quantification of photons emitted after mono-oxygenation of 5′-fluoroluciferin to oxyfluoroluciferin by firefly luciferase. […] The plates were shaken gently for 3 min at room temperature and luminescence was measured on a Victor^3 V 1420 multilabel counter (Perkin Elmer) with a 1 second read time using a 700 nm cut-off filter. The EC50 values were calculated from dose response curves from the resulting best-fit equations determined by Microsoft Excel and XLfit 5.2 software. […]

CCOc1nc(N)nc2c1ncn2C1O[C@H](CO[P@@](=O)(N[C@H](C)C(=O)OC(C)C)Oc2ccccc2)[C@@H](O)[C@@]1(C)F (stereo partly drawn) [Compound 104b]
CC50 at 72 h [1]: > 50000 nM | Mouse Liver TP AUC0-24 [2]: +++ (500 < +++ ≦ 2000) | EC50 [3]: 250 to 1000 nM

CCOc1nc(N)nc2c1ncn2C1O[C@H](COP(=O)(N[C@H](C)C(=O)OC(C)C)Oc2ccccc2)[C@@H](O)[C@@]1(C)F (stereo partly drawn) [Compound 104a]
CC50 at 72 h [1]: > 50000 nM | Mouse Liver TP AUC0-24 [2]: +++ (500 < +++ ≦ 2000) | EC50 [3]: 250 to 1000 nM
